Target: T1, BdorOR13a/BdorOrco (Bactrocera dorsalis, UniProt A0A0G2UKH1)
T1 construct: gene OR13a; full-length 441-residue OR co-expressed with BdorOrco; pcDNA3.1(+) with mCherry reporter in HEK 293 cells (also pT7Ts in Xenopus oocytes); with Odorant receptor coreceptor
T1 sequence (A0A0G2UKH1 1-441): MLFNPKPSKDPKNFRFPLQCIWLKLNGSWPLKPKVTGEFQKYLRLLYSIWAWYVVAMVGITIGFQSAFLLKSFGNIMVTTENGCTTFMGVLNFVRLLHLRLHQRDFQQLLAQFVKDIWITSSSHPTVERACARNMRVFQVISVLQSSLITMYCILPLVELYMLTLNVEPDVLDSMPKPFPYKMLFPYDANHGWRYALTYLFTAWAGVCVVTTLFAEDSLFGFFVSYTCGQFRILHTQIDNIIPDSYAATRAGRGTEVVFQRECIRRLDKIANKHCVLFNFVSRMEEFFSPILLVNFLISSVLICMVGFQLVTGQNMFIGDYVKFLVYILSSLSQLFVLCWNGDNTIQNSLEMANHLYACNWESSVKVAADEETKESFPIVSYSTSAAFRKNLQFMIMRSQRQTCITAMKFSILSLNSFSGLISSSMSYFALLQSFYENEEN
T1 sequence (B2Z9Z0 1-473 partner): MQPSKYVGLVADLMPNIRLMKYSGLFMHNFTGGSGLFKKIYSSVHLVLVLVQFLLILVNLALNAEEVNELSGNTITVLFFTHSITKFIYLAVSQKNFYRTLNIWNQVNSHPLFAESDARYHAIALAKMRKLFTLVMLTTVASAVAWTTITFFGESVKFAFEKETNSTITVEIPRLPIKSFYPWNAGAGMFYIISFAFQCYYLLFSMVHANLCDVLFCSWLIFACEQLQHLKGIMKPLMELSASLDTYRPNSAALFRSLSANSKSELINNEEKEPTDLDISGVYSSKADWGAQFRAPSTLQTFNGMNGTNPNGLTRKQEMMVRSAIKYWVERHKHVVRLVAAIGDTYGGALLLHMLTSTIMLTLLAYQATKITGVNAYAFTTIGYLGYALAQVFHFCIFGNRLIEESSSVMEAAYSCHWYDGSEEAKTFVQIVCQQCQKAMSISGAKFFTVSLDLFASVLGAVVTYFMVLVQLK
Assay: calcium imaging (Fluo-4 AM), HEK […] cells
Format: cell-based

- EC50: 11.3 µM
Compound: C=CC(O)CCCCC (stereo not shown) [1-octen-3-ol]

Reference: PMC9932091, “Two odorant receptors regulate 1-octen-3-ol induced oviposition behavior in the oriental fruit fly” (Communications Biology, 2023)
